Data set [1] is described as follows: HPLC test of 2CMA-TP degradation during the RDRP reaction. It counts as physicochemical. The note with it: 1 hr incubation, 300 μM, n=3. As for the experimental part: Incubation of the three LRV1 populations with 2CMA-TP reduced synthesis of both the full-length and small RDRP products (FIG. 22A, FIG. 22B, FIG. 23A, FIG. 23B, and FIG. 24). The synthesis of each product was quantitated and normalized to that obtained with drug-free controls, from which IC50s were calculated (Table 3). […] We were concerned that this arose artificially from 2CMA-TP degradation during the assay.
To study inhibition of the viral RDRP by 2CMA-TP, varying amounts of the compound were added to standard RDRP reaction mixtures. 2CMA-TP was custom synthesized by Jena Bioscience, and its identity was confirmed using electrospray ionization with a Fourier-transform mass spectrometer in negative ion mode (Thermo Scientific). The stock concentration of 2CMA-TP was calculated by UV absorption at 260 nm, assuming that its molar extinction coefficient was identical to ATP. To measure the amount of 2CMA-TP which is non-specifically hydrolyzed over the course of an RDRP reaction, mock reactions were run using LRV1− gradient fractions, cold UTP, and 300 μM 2CMA-TP. The 20-μL reactions were diluted to 80 μL with distilled water and immediately analyzed by HPLC as described below.

The subject of a further data set is LRV2. Put plainly: Virus levels in L. major strain 5-ASKH bearing LRV2. The data set is classed as cell-based, Leishmania major. The note with it: data not shown. An excerpt:
A second line of inquiry would of course be the development of anti-LRV1 agents with improved potency.

Data set [2] has as its system LRV1+ Lgy M4147 parasites. Kind of data set: Intracellular 2CMA-TP accumulation and retention in parasites (HPLC). The data set is classed as in vitro ADME, Leishmania guyanensis. The settings on record: for Intracellular 2CMA-TP concentration: 18 hours, n=4. The source says:
To account for the relative sensitivity of Lgy LRV1 to 2CMA compared to the insensitivity of LRV1 RDRP activity to inhibition by 2CMA-TP, we hypothesized that parasites take up and activate 2CMA, accumulating high 2CMA-TP concentrations. We first identified an HPLC protocol capable of resolving both synthetic 2CMA-TP and a smaller peak we presume to be 2CMA-DP from natural ribonucleotides and the internal standard, dGTP (FIG. 23A and FIG. 23B). Standard mixtures of known concentration were used to generate a standard curve relating peak area to 2CMA-TP amounts (FIG. 30). We then tested several protocols for extracting parasite nucleotides and determined that extraction with 1:1 acetonitrile:water performed best. Using this protocol, we compared the nucleotide profiles of LRV1+ Lgy grown in the presence or absence of 10 μM extracellular 2CMA for 18 hours, a time chosen because it corresponds to about two rounds of parasite replication. Under these conditions, we observed a peak co-eluting with synthetic 2CMA-TP that was absent from untreated parasites (FIG. 25B), establishing the parasite's capacity to phosphorylate 2CMA.
We then measured steady-state levels of intracellular 2CMA-TP following incubation of late-log-phase parasites with 2CMA for 18 hours. To determine the intracellular concentration of 2CMA-TP under these conditions, we measured the average volume of the parasites (roughly 23 fL). […] Over this range of concentrations, internal 2CMA-TP levels exceeded external 2CMA concentrations by 40- to 80-fold (FIG. 26A and FIG. 26B), attesting to the potency of the parasite's purine salvage pathway.
Cultures of WT or GFP-expressing LRV1+ Lgy M4147 were seeded at 2×10^5 cells/mL and analyzed when they reached early, mid, or late log phase. From each sample, one aliquot was analyzed by light scattering on a flow-cytometer, while another was immobilized by treatment with 20 mM sodium azide and imaged by spinning-disk confocal microscopy {Ellenberger, 1987}. Cell volumes were calculated using a custom ImageJ script {Schindelin, 2012}. A standard curve relating forward scattering intensity to measured volume was developed and used to estimate metabolite concentrations (FIG. 29).
For drug metabolism studies, 10^8 late-log phase parasites in 5 mL of Schneider's medium were treated with indicated drug concentrations for 20 hours. For accumulation assays, 10^8 cells were harvested immediately. In ‘washout’ experiments, one 5 mL culture was grown for each replicate of each time point. These cultures were spun down, resuspended in drug-free medium, centrifuged again, and finally suspended in 5 mL drug-free Schneider's medium. After 2, 4, or 8 hours, nucleotides were extracted from 10^8 parasites from individual washed cultures and analyzed by HPLC.
For each sample, cells were collected by centrifugation at 2200×g, 4° C. for 5 minutes, re-suspended in 1 mL ice-cold PBS and re-centrifuged. The cell pellet was gently re-suspended in 100 μL ice-cold 0.5×PBS plus 7 nmol dGTP as a recovery and elution standard. […] Cells were immediately lysed by rapidly re-suspending in 900 μL ice-cold 5:4 acetonitrile:water mixture {Au, 1989} and vortexing continuously for 5 min at 4° C. Insoluble debris was pelleted at 16,000×g for 5 minutes and the clarified extract was transferred to a fresh tube. The solvent was removed by evaporation in a SAVANT SpeedVac concentrator (Thermo Scientific) with the heater off and the vacuum pump refrigeration on. Samples were re-suspended with 80 μL distilled water, flash frozen, and stored at −80° C. prior to HPLC analysis.
Nucleoside di- and tri-phosphates were separated by isocratic HPLC as described {Moal, 1989}. […]

“And” between values parts separate entries of the source, which are not always exact repeats. Identical values can stand only once.

With `C[C@@]1(O)[C@H](O)[C@@H](COP(=O)(O)OP(=O)(O)OP(=O)(O)O)O[C@H]1n1cnc2c(N)ncnc21` [Compound 2CMA-TP, 2′-C-methyladenosine triphosphate], the “2CMA-TP degraded (to apparent 2CMA-DP) during the assay” value in data set [1] was determined as 3.7±0.6%. Besides, in the data set with LRV2, the “Inhibition of LRV2 virus levels, in words” value is “no inhibition of virus levels”. The “Intracellular 2CMA-TP concentration” value in data set [2] (1 μM external 2CMA) was 78 ± 9.0 µM and 80 µM; in data set [2] (3 μM external 2CMA) it was 152 ± 43 µM; in data set [2] (10 μM external 2CMA) it was 410 ± 110 µM and 410 µM. In addition, the “Accumulated 2CMA-TP retained” value in data set [2] (4 hours in drug-free medium after 18 hours in 10 μM 2CMA) is recorded as “approximately 50%”. Also, in data set [2] (8 hours in drug-free medium, corrected for population growth), the “Intrinsic 8 hour 2CMA-TP concentration” value came to 230 ± 130 µM. The “Average 2CMA-TP concentration after washout” value in data set [2] (8 hours in drug-free medium, not corrected for parasite replication) turned out to be 170 ± 100 µM.

Source of the values: US20190307783A1, “USE OF ANTIVIRALS TO INHIBIT PROTOZOAN VIRUSES” (priority 2016, published 2019).
